US9079974B2, “GH-RH analogs with potent agonistic effects” (The University of Miami, priority 2011, dated 2015)
Square brackets hold non-standard residues; d marks the D form. Peptide text beside a SMILES is read from it. * marks the point of attachment. Phe(F5) = N[C@@H](Cc1c(F)c(F)c(F)c(F)c1F)C(=O)O; Desaminotyrosyl = O=C(CCc1ccc(O)cc1)*; NMeY = CN[C@@H](Cc1ccc(O)cc1)C(=O)O; Agmatine = N=C(N)NCCCCN*; Nle = CCCC[C@H](N)C(=O)O; Orn = NCCC[C@H](N)C(=O)O; Abu = CC[C@H](N)C(=O)O; GABA = NCCCC(=O)O

Each molecule was assayed against T1, GHRH receptor (Homo sapiens, UniProt Q02643) (assay: GHRH receptor binding, 125I-labeled JV-1-42 ligand competition, human pituitary membrane homogenates (Table 7)). Details: 125I-labeled JV-1-42, human pituitary membranes.
T1 construct: Normal human pituitaries were purchased from the National Hormone and Peptide Program; tissue National Hormone and Peptide Program (A. F. Parlow); host or cells: normal human pituitary, membrane fraction
T1 sequence (Q02643 23-423): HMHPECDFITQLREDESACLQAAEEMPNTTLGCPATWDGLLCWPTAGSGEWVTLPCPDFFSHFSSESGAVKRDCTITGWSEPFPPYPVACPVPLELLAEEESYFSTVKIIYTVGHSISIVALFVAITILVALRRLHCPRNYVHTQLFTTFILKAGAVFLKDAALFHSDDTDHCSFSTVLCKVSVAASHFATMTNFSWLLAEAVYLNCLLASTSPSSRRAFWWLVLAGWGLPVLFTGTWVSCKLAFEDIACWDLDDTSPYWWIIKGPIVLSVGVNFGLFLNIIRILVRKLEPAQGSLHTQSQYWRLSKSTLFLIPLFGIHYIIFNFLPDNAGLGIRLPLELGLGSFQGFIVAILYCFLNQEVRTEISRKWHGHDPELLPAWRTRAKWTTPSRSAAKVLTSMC
Procedure: Preparation of human pituitary membrane fraction and receptor binding of GHRH agonists were performed as previously described, by using a sensitive in vitro ligand competition assay based on binding of ^125I-labeled JV-1-42 to human pituitary membrane homogenates. Normal human pituitaries were purchased from the National Hormone and Peptide Program (A. F. Parlow, Los Angeles, County Harbor-UCLA Medical Center, Torrance, Calif.).

IC50 [nM] | Compound
1.56 | CCCC[C@H](NC(=O)[C@@H](NC(=O)[C@H](CC(=O)O)NC(=O)[C@H](CCC(N)=O)NC(=O)[C@H](CC(C)C)NC(=O)[C@H](CC(C)C)NC(=O)[C@H](CCCN)NC(=O)[C@H](CCCNC(=N)N)NC(=O)[C@H](C)NC(=O)[C@H](CO)NC(=O)[C@H](CC(C)C)NC(=O)[C@H](CCC(N)=O)NC(=O)[C@H](CC)NC(=O)[C@H](CC(C)C)NC(=O)[C@@H](NC(=O)[C@H](CCCN)NC(=O)[C@H](CCCNC(=N)N)NC(=O)[C@H](Cc1ccc(O)cc1)NC(=O)[C@H](CO)NC(=O)[C@H](CC(N)=O)NC(=O)[C@@H](NC(=O)[C@H](Cc1c(F)c(F)c(F)c(F)c1F)NC(=O)[C@@H](NC(=O)[C@H](C)NC(=O)[C@H](CC(=O)O)NC(=O)[C@@H](C)NC(=O)[C@H](Cc1ccc(O)cc1)NC)[C@@H](C)CC)[C@@H](C)O)C(C)C)[C@@H](C)CC)C(=O)N[C@@H](CO)C(=O)N[C@@H](CCCNC(=N)N)C(=O)NCCCC(=O)NC [Peptide P-27414, [N—Me-Tyr^1, D-Ala^2, Fpa5^6, Orn^12, Abu^15, Orn^21, Nle^27, Gab^30]hGH-RH(1-30)NH—CH3] (H-[NMeY][dA]DAI[Phe(F5)]TNSYR[Orn]VL[Abu]QLSAR[Orn]LLQDI[Nle]SR[GABA]-NHMe)
2.74 | CCCC[C@H](NC(=O)[C@@H](NC(=O)[C@H](CC(=O)O)NC(=O)[C@H](CCC(N)=O)NC(=O)[C@H](CC(C)C)NC(=O)[C@H](CC(C)C)NC(=O)[C@H](CCCN)NC(=O)[C@H](CCCNC(=N)N)NC(=O)[C@H](C)NC(=O)[C@H](CO)NC(=O)[C@H](CC(C)C)NC(=O)[C@H](CCC(N)=O)NC(=O)[C@H](CC)NC(=O)[C@H](CC(C)C)NC(=O)[C@@H](NC(=O)[C@H](CCCN)NC(=O)[C@H](CCCNC(=N)N)NC(=O)[C@H](Cc1ccc(O)cc1)NC(=O)[C@H](CO)NC(=O)[C@H](CCC(N)=O)NC(=O)[C@@H](NC(=O)[C@H](Cc1ccccc1)NC(=O)[C@@H](NC(=O)[C@H](C)NC(=O)[C@H](CC(=O)O)NC(=O)[C@@H](C)NC(=O)CCc1ccc(O)cc1)[C@@H](C)CC)[C@@H](C)O)C(C)C)[C@@H](C)CC)C(=O)N[C@@H](CC(=O)O)C(=O)N[C@H](CCCNC(=N)N)C(=O)NC [Peptide P-27401, [Dat^1, D-Ala^2, Gln^8, Orn^12, Abu^15, Orn^21, Nle^27, Asp^28, D-Arg^29]hGH-RH(1-29)NH—CH3] (Desaminotyrosyl-[dA]DAIFTQSYR[Orn]VL[Abu]QLSAR[Orn]LLQDI[Nle]D[dR]-NHMe)
0.86 | CCCC[C@H](NC(=O)[C@@H](NC(=O)[C@H](CC(=O)O)NC(=O)[C@H](CCC(N)=O)NC(=O)[C@H](CC(C)C)NC(=O)[C@H](CC(C)C)NC(=O)[C@H](CCCN)NC(=O)[C@H](CCCNC(=N)N)NC(=O)[C@H](C)NC(=O)[C@H](CO)NC(=O)[C@H](CC(C)C)NC(=O)[C@H](CCC(N)=O)NC(=O)[C@H](CC)NC(=O)[C@H](CC(C)C)NC(=O)[C@@H](NC(=O)[C@H](CCCN)NC(=O)[C@H](CCCNC(=N)N)NC(=O)[C@H](Cc1ccc(O)cc1)NC(=O)[C@H](CO)NC(=O)[C@H](CC(N)=O)NC(=O)[C@@H](NC(=O)[C@H](Cc1ccccc1)NC(=O)[C@@H](NC(=O)[C@H](C)NC(=O)[C@H](CC(=O)O)NC(=O)[C@@H](C)NC(=O)CCc1ccc(O)cc1)[C@@H](C)CC)[C@@H](C)O)C(C)C)[C@@H](C)CC)C(=O)N[C@@H](CO)C(=O)N[C@@H](CCCNC(=N)N)C(=O)N[C@@H](CCC(N)=O)C(=O)NCCCC(N)=O [Peptide P-29702, [Dat^1, D-Ala^2, Orn^12, Abu^15, Orn^21, Nle^27, Gln-Gab^30]hGH-RH(1-30)NH2] (Desaminotyrosyl-[dA]DAIFTNSYR[Orn]VL[Abu]QLSAR[Orn]LLQDI[Nle]SRQ[GABA]-NH2)
0.52 | CCCC[C@H](NC(=O)[C@@H](NC(=O)[C@H](CC(=O)O)NC(=O)[C@H](CCC(N)=O)NC(=O)[C@H](CC(C)C)NC(=O)[C@H](CC(C)C)NC(=O)[C@H](CCCN)NC(=O)[C@H](CCCNC(=N)N)NC(=O)[C@H](C)NC(=O)[C@H](CO)NC(=O)[C@H](CC(C)C)NC(=O)[C@H](CCC(N)=O)NC(=O)[C@H](CC)NC(=O)[C@H](CC(C)C)NC(=O)[C@@H](NC(=O)[C@H](CCCN)NC(=O)[C@H](CCCNC(=N)N)NC(=O)[C@H](Cc1ccc(O)cc1)NC(=O)[C@H](CO)NC(=O)[C@H](CCC(N)=O)NC(=O)[C@@H](NC(=O)[C@H](Cc1ccccc1)NC(=O)[C@@H](NC(=O)[C@H](C)NC(=O)[C@H](CC(=O)O)NC(=O)[C@@H](C)NC(=O)[C@H](Cc1ccc(O)cc1)NC)[C@@H](C)CC)[C@@H](C)O)C(C)C)[C@@H](C)CC)C(=O)N[C@@H](CC(=O)O)C(=O)N[C@@H](CCCNC(=N)N)C(=O)NCC [Peptide P-28420, [N—Me-Tyr^1, D-Ala^2, Gln^8, Orn^12, Abu^15, Orn^21, Nle^27, Asp^28]hGH-RH(1-29)NH—CH2—CH3] (H-[NMeY][dA]DAIFTQSYR[Orn]VL[Abu]QLSAR[Orn]LLQDI[Nle]DR-NHEt)
1.47 | CCCC[C@H](NC(=O)[C@@H](NC(=O)[C@H](CC(=O)O)NC(=O)[C@H](CCC(N)=O)NC(=O)[C@H](CC(C)C)NC(=O)[C@H](CC(C)C)NC(=O)[C@H](CCCN)NC(=O)[C@H](CCCNC(=N)N)NC(=O)[C@H](C)NC(=O)[C@H](CO)NC(=O)[C@H](CC(C)C)NC(=O)[C@H](CCC(N)=O)NC(=O)[C@H](CC)NC(=O)[C@H](CC(C)C)NC(=O)[C@@H](NC(=O)[C@H](CCCN)NC(=O)[C@H](CCCNC(=N)N)NC(=O)[C@H](Cc1ccc(O)cc1)NC(=O)[C@H](CO)NC(=O)[C@H](CC(N)=O)NC(=O)[C@@H](NC(=O)[C@H](Cc1ccccc1)NC(=O)[C@@H](NC(=O)[C@H](C)NC(=O)[C@H](CC(=O)O)NC(=O)[C@@H](C)NC(=O)[C@H](Cc1ccc(O)cc1)NC)[C@@H](C)CC)[C@@H](C)O)C(C)C)[C@@H](C)CC)C(=O)N[C@@H](CC(=O)O)C(=O)N[C@@H](CCCNC(=N)N)C(=O)NCC [Peptide P-28421, [N—Me-Tyr^1, D-Ala^2, Orn^12, Abu^15, Orn^21, Nle^27, Asp^28]hGH-RH(1-29)NH—CH2—CH3] (H-[NMeY][dA]DAIFTNSYR[Orn]VL[Abu]QLSAR[Orn]LLQDI[Nle]DR-NHEt)

Compound | IC50 [nM]
CCCC[C@H](NC(=O)[C@@H](NC(=O)[C@H](CC(=O)O)NC(=O)[C@H](CCC(N)=O)NC(=O)[C@H](CC(C)C)NC(=O)[C@H](CC(C)C)NC(=O)[C@H](CCCN)NC(=O)[C@H](CCCNC(=N)N)NC(=O)[C@H](C)NC(=O)[C@H](CO)NC(=O)[C@H](CC(C)C)NC(=O)[C@H](CCC(N)=O)NC(=O)[C@H](CC)NC(=O)[C@H](CC(C)C)NC(=O)[C@@H](NC(=O)[C@H](CCCN)NC(=O)[C@H](CCCNC(=N)N)NC(=O)[C@H](Cc1ccc(O)cc1)NC(=O)[C@H](CO)NC(=O)[C@H](CCC(N)=O)NC(=O)[C@@H](NC(=O)[C@H](Cc1ccccc1)NC(=O)[C@@H](NC(=O)[C@H](C)NC(=O)[C@H](CC(=O)O)NC(=O)[C@@H](C)NC(=O)[C@H](Cc1ccc(O)cc1)NC)[C@@H](C)CC)[C@@H](C)O)C(C)C)[C@@H](C)CC)C(=O)N[C@@H](CC(=O)O)C(=O)NCCCCNC(=N)N [Peptide P-20361, [N—Me-Tyr^1, D-Ala^2, Gln^8, Orn^12, Abu^15, Orn^21, Nle^27, Asp^28, Agm^29]hGH-RH(1-29)] (H-[NMeY][dA]DAIFTQSYR[Orn]VL[Abu]QLSAR[Orn]LLQDI[Nle]D-Agmatine) | 0.82
CCCC[C@H](NC(=O)[C@@H](NC(=O)[C@H](CC(=O)O)NC(=O)[C@H](CCC(N)=O)NC(=O)[C@H](CC(C)C)NC(=O)[C@H](CC(C)C)NC(=O)[C@H](CCCN)NC(=O)[C@H](CCCNC(=N)N)NC(=O)[C@H](C)NC(=O)[C@H](CO)NC(=O)[C@H](CC(C)C)NC(=O)[C@H](CCC(N)=O)NC(=O)[C@H](CC)NC(=O)[C@H](CC(C)C)NC(=O)[C@@H](NC(=O)[C@H](CCCN)NC(=O)[C@H](CCCNC(=N)N)NC(=O)[C@H](Cc1ccc(O)cc1)NC(=O)[C@H](CO)NC(=O)[C@H](CC(N)=O)NC(=O)[C@@H](NC(=O)[C@H](Cc1c(F)c(F)c(F)c(F)c1F)NC(=O)[C@@H](NC(=O)[C@H](C)NC(=O)[C@H](CC(=O)O)NC(=O)[C@@H](C)NC(=O)[C@H](Cc1ccc(O)cc1)NC)[C@@H](C)CC)[C@@H](C)O)C(C)C)[C@@H](C)CC)C(=O)N[C@@H](CC(=O)O)C(=O)NCCCCNC(=N)N [Peptide P-20359, [N—Me-Tyr^1, D-Ala^2, Fpa5^6, Orn^12, Abu^15, Orn^21, Nle^27, Asp^28, Agm^29]hGH-RH(1-29)] (H-[NMeY][dA]DAI[Phe(F5)]TNSYR[Orn]VL[Abu]QLSAR[Orn]LLQDI[Nle]D-Agmatine) | 3.05
CCCC[C@H](NC(=O)[C@@H](NC(=O)[C@H](CC(=O)O)NC(=O)[C@H](CCC(N)=O)NC(=O)[C@H](CC(C)C)NC(=O)[C@H](CC(C)C)NC(=O)[C@H](CCCN)NC(=O)[C@H](CCCNC(=N)N)NC(=O)[C@H](C)NC(=O)[C@H](CO)NC(=O)[C@H](CC(C)C)NC(=O)[C@H](CCC(N)=O)NC(=O)[C@H](CC)NC(=O)[C@H](CC(C)C)NC(=O)[C@@H](NC(=O)[C@H](CCCN)NC(=O)[C@H](CCCNC(=N)N)NC(=O)[C@H](Cc1ccc(O)cc1)NC(=O)[C@H](CO)NC(=O)[C@H](CC(N)=O)NC(=O)[C@@H](NC(=O)[C@H](Cc1ccccc1)NC(=O)[C@@H](NC(=O)[C@H](C)NC(=O)[C@H](CC(=O)O)NC(=O)[C@@H](C)NC(=O)[C@H](Cc1ccc(O)cc1)NC)[C@@H](C)CC)[C@@H](C)O)C(C)C)[C@@H](C)CC)C(=O)N[C@@H](CC(=O)O)C(=O)NCCCCNC(=N)N [Peptide P-20367, [N—Me-Tyr^1, D-Ala^2, Orn^12, Abu^15, Orn^21, Nle^27, Asp^28, Agm^29]hGH-RH(1-29)] (H-[NMeY][dA]DAIFTNSYR[Orn]VL[Abu]QLSAR[Orn]LLQDI[Nle]D-Agmatine) | 1.7
